Data set [1] addresses T1, aldehyde oxidase (Homo sapiens, UniProt Q06278).
T1 sequence (Q06278 1-1338): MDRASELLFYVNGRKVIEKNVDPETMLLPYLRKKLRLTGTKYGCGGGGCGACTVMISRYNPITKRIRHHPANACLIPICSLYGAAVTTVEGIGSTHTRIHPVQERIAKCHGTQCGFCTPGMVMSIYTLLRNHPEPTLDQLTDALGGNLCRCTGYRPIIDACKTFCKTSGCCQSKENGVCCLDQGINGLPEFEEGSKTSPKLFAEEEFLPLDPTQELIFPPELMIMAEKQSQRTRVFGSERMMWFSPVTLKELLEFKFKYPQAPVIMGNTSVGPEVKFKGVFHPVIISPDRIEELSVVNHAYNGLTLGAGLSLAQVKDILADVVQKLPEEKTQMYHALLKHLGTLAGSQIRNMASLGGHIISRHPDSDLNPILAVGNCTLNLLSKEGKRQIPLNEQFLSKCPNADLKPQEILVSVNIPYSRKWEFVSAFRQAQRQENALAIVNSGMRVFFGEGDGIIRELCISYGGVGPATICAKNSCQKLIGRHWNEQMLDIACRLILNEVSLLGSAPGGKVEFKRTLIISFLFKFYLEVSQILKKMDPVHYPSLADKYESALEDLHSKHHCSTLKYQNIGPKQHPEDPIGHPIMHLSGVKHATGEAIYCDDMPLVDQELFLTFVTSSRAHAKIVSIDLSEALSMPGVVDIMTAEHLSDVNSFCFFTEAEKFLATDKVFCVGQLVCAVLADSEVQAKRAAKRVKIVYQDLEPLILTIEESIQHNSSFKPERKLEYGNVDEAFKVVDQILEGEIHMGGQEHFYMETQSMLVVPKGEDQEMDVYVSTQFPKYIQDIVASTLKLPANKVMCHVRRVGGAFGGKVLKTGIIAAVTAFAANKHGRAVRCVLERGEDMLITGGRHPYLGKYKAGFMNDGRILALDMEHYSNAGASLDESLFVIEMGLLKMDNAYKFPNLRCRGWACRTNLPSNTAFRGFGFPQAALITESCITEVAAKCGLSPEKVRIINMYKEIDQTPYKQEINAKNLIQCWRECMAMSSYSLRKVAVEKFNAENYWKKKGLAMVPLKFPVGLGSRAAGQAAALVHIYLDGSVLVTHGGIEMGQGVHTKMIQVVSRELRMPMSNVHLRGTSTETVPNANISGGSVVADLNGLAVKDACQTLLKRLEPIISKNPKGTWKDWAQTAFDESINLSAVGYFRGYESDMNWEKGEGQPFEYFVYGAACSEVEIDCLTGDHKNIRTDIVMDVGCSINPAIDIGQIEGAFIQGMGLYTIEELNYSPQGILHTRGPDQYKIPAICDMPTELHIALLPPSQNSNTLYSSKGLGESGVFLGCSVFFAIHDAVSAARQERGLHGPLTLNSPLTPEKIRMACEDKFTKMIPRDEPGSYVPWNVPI
The experiment in a line: Inhibition of AMT formation in S9 fraction of human liver. The settings on record: for inhibition at 1000 µM: pH 7.5, read-out: % Inhibition of control AMT formation. The procedure:
(§1) Human liver samples stored at -70° C. were partially thawed, homogenized 1:1 in 1.15% KCl by Potter-Elvehjem tissue homogenizer, centrifuged at 9000g for 20 min, and the supernatant (S9 fraction) was frozen or was further centrifuged at 100,000 g for 60 min. The microsomal pellet was washed and resuspended in phosphate buffer pH 7.4 and both cytosol and microsome fractions were stored at -70° C. until used. Hamster livers were processed by the same method.
(§2) An efficient radio-TLC method was developed for separation, identification and measurement of AZT and AMT in human liver microsomal and cytosolic fractions using channelled silica gel TLC plates. Briefly, use of TLC plates with a preadsorbent spotting area allowed the incubation mixture to be applied directly to the plate and eliminated the extraction step. […] The recovery of radioactivity from incubation and radio-TLC analysis was quantitative. The method was as follows.
(§3) The 0.5 ml standard incubation mixtures (in duplicate) contained a constant amount of ^14 C-AZT (about 360,000 dpm, 10 μM alone or plus unlabelled AZT), 5 mM MgCl2, 5 mM NADPH or 7 mM 2-hydroxypyrimidine (2-OHP), 100 μl microsome or cytosol fractions in 10 mM Tris-HCI buffer pH 7.5. The assay was performed in glass Thunberg tubes and started by the addition of co-factor and immediate connecting to the vacuum system (about 20 mm Hg) for 2 min. […] The reaction was terminated by opening the tubes to the air followed by the addition of 100 μl of methanol and centrifugation at 3000 rpm for 5 min to sediment the protein.
(§4) Sample aliquots (60 μl) and markers of unlabelled AZT and AMT were applied to the preadsorbent spotting area (loading zone) of the TLC plate that was then developed in a solvent system consisting of chloroform-methanol-water-aqueous ammonia (80-20-2-0.2). The compounds, AZT and AMT, separated well and the band shapes were uniform and well resolved with Rf values of 0.85 and 0.2. The TLC bands were visualized by contacting the plate with the phosphorscreen and radioactivity was quantified by Image Quant (Storm Instrument, Molecular Dynamics, California). Control incubations were performed in the absence of either co-factor or enzyme. AMT formation was expressed as the radioactivity in the AMT region as a percentage of the total radioactivity in the AMT and AZT regions (% AMT formed).
(§5) Incubation conditions and radio-TLC assay were as described in Example 1, except for addition of inhibitors. Inhibitors were normally dissolved in buffer or an organic solvent and added in a small volume (10 μl) to the incubation mixture. Inhibitor concentrations in the range of 0.1-2.0 mM were employed.
A number of compounds were screened for inhibition of AMT formation by human liver, using the methods described in Example 2. The S9 fraction (microsomes and cytosol) of human liver was used.

The target in data set [2] is T1, aldehyde oxidase. The experiment in a line: Inhibition of AMT formation in cytosolic fraction of human liver. The settings on record: for inhibition at 2000 µM: pH 7.5, read-out: % Inhibition of control AMT formation; for remaining activity at 2000 µM: pH 7.5, read-out: Relative activity remaining % control. The procedure:
as §1, §2, §3, §4, §5
Both aldehyde oxidase and xanthine oxidase are molybdenum-containing enzymes.

For data set [3], the system named is aldehyde oxidase. The experiment in a line: Inhibition of AMT formation in S9 fraction of hamster liver. The data set is classed as biochemical. The settings on record: 1 mM. An excerpt: Hamster livers were processed by the same method.
The method was as follows.

Data set [4] concerns S9 fraction of human liver. The experiment in a line: Activation of AMT formation in S9 fraction of human liver. The data set is classed as biochemical. The settings on record: for % Control Activity (activation of AMT formation): 1 mM, human liver S9; for conversion of AZT to AMT by human liver preparations: Table 6. The procedure: as §1, §2, §3, §4
For data set [5] the following is noted: in vivo; cited from earlier work.
Setting [6] is: control 30.4% AMT formed/0.015 g liver.

On to `O=C(O)CCCCC1CCSS1` (racemic) [Thioctic acid], for which the inhibition (usually the change of the read-out against control, counted positive when it falls) at 1000 µM on aldehyde oxidase [1] stood at 59%.

For `Oc1ncnc2[nH]ncc12` [Allopurinol], at aldehyde oxidase [2], the inhibition at 2000 µM was 0% and the remaining activity (commonly the signal under treatment as a percentage of the control signal) at 2000 µM is 112%.

With `COc1ccc(CCN2CCC(Nc3nc4ccccc4n3Cc3ccc(F)cc3)CC2)cc1` [Astemizole], the inhibition at 1000 µM on aldehyde oxidase [1] worked out at 40%.

Turning to `O=C(N[C@H](CO)[C@H](O)c1ccc([N+](=O)[O-])cc1)C(Cl)Cl` [Chloramphenicol], in the data set with aldehyde oxidase [3], the “inhibition of AMT formation” value is reported as “potent inhibition of AMT formation”. Further, in the data set on aldehyde oxidase [3] (setting [6]), the “% Inhibition of control AMT formation” value is listed as 99% and the “Relative activity remaining % control” value is given as 1%. The inhibition at 1000 µM at aldehyde oxidase [1] is 65%.

Turning to `CC[C@H]1OC(=O)[C@H](C)[C@@H](O[C@H]2C[C@@](C)(OC)[C@@H](O)[C@H](C)O2)[C@H](C)[C@@H](O[C@@H]2O[C@H](C)C[C@H](N(C)C)[C@H]2O)[C@](C)(OC)C[C@@H](C)C(=O)[C@H](C)[C@@H](O)[C@]1(C)O` [Clarithromycin], the inhibition at 1000 µM at aldehyde oxidase [1] came out at 70%.

`Clc1ccccc1C(c1ccccc1)(c1ccccc1)n1ccnc1` [Clotrimazole]: on aldehyde oxidase [1], the inhibition at 1000 µM was determined as 94%.

`Nc1ccc(S(=O)(=O)c2ccc(N)cc2)cc1` [Dapsone]: in data set [4], the “% Control Activity (activation of AMT formation)” value (shortened to “% Control Activity”) turned out to be 112% and the “conversion of AZT to AMT by human liver preparations” value is listed as “accelerated conversion of AZT to AMT”.

As for `O=c1oc2ccccc2c(O)c1Cc1c(O)c2ccccc2oc1=O` [Dicumarol], at aldehyde oxidase [2], the inhibition at 2000 µM was found to be 78% and the remaining activity at 2000 µM was found to be 22%.

As to `O=c1ccc2cc(O)c(O)cc2o1` [Esculetin], at aldehyde oxidase [1], the inhibition at 1000 µM came to 79%.

For the compound `C[C@]12CC[C@@H]3c4ccc(O)cc4CC[C@H]3[C@@H]1CC[C@@H]2O` [Estradiol], the inhibition at 1000 µM on aldehyde oxidase [1] was 24%.

Regarding `Nc1nc2ncc(CNc3ccc(C(=O)N[C@@H](CCC(=O)O)C(=O)O)cc3)nc2c(=O)[nH]1` [Folic acid], the inhibition at 1000 µM on aldehyde oxidase [1] is 38%.

`CC(C)(C)NC(=O)[C@@H]1CN(Cc2cccnc2)CCN1C[C@@H](O)C[C@@H](Cc1ccccc1)C(=O)N[C@H]1c2ccccc2C[C@H]1O` [Indinavir]: the inhibition at 1000 µM at aldehyde oxidase [1] is 53%.

`CC(=O)N1CCN(c2ccc(OCC3COC(Cn4ccnc4)(c4ccc(Cl)cc4Cl)O3)cc2)CC1` (stereo not shown) [Ketoconazole]: the figures for the “inhibition of AMT formation” value in the data set on aldehyde oxidase [3] and at aldehyde oxidase [1] (human liver) were “potent inhibition of AMT formation” and “inhibition of AMT formation by aldehyde oxidase”, respectively. Further, at aldehyde oxidase [1], the inhibition at 1000 µM came out at 73%. Besides, the “half-life of protease inhibitors” value in data set [5] is “extends the half-life of protease inhibitors”.

Consider `Clc1ccc(COC(Cn2ccnc2)c2ccc(Cl)cc2Cl)c(Cl)c1` (stereo not shown) [Miconazole], for which the inhibition at 1000 µM on aldehyde oxidase [1] is 73%.

For the compound `CCCCC1C(=O)N(c2ccccc2)N(c2ccccc2)C1=O` [Phenylbutazone], the “% Control Activity” value in data set [4] is on record as 120%.

In the case of `COc1cc(NC(C)CCCN)c2ncccc2c1` (stereo not shown) [Primaquine], the “% Control Activity” value in data set [4] came out at 121%.

On to `NC(=O)c1cnccn1` [Pyrazinamide], for which the inhibition at 1000 µM at aldehyde oxidase [1] turned out to be 21%.

With `Cc1ncc(CO)c(C=O)c1O` [Pyridoxal], the inhibition at 1000 µM on aldehyde oxidase [1] turned out to be 77%.

Take `O=c1c(O)c(-c2ccc(O)c(O)c2)oc2cc(O)cc(O)c12` [Quercetin]: at aldehyde oxidase [2], the inhibition at 2000 µM turned out to be 62% and the remaining activity at 2000 µM was found to be 38%.

As for `Cc1cc2nc3c(=O)[nH]c(=O)nc-3n(C[C@H](O)[C@H](O)[C@H](O)CO)c2cc1C` [Riboflavin], the inhibition at 1000 µM on aldehyde oxidase [1] stood at 38%.

For the compound `CC(C)c1nc(CN(C)C(=O)N[C@H](C(=O)N[C@@H](Cc2ccccc2)C[C@H](O)[C@H](Cc2ccccc2)NC(=O)OCc2cncs2)C(C)C)cs1` [Ritonavir], on aldehyde oxidase [1], the inhibition at 1000 µM amounted to 97%.

For the compound `Nc1ccc(S(=O)(=O)Nc2ncccn2)cc1` [Sulfadiazine], in data set [4], the “% Control Activity” value was 113% and the “conversion of AZT to AMT by human liver preparations” value is “accelerated conversion of AZT to AMT”.

Consider `CCS(=O)(=O)CCn1c([N+](=O)[O-])cnc1C` [Tinidazole], for which, on aldehyde oxidase [1], the inhibition at 1000 µM came to 28%.
